Read-outs that look alike come from different tables or passages of the source.

Assay [1] addresses T1, Human Topo I (topoisomerase I) (Homo sapiens, UniProt P11387).
T1 construct: gene TOP1
T1 sequence (P11387 2-765): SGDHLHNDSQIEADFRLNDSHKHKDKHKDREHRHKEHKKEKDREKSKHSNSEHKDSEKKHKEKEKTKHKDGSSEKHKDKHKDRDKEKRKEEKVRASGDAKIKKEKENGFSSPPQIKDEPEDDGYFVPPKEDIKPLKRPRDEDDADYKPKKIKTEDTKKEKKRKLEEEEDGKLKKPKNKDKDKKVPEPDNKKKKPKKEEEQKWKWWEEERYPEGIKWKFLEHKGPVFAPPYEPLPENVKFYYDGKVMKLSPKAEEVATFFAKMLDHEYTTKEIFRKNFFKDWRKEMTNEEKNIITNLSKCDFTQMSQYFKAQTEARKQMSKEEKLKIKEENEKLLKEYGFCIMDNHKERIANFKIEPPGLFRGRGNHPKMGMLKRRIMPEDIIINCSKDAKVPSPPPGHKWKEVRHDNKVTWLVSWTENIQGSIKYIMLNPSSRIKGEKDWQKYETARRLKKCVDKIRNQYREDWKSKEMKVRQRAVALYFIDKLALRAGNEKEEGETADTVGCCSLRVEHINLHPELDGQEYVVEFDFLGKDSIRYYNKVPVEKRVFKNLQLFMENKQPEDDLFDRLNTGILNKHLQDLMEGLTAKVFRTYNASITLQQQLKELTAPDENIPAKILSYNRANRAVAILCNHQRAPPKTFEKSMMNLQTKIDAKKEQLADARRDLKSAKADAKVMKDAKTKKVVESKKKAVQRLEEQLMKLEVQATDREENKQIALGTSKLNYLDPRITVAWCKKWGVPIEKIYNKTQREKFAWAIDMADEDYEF
Nature of the assay: Topo I DNA relaxation fluorescence plate assay (Inspiralis). Format: biochemical.

Assay [2] deals with nicked decamer 1 (nicked DNA duplex with PEG(6) tethers) (DNA, duplex, nick between T5 and G6; PEG6 tether at both ends of the duplex, joining the strands into one chain) GCGTT/GTCGC/GCGACAACGC
Nature of the assay: MALDI-MS of reaction product. The following applies: 25 mM NaCl, 25 mM K3PO4; covalent; biohybrid peak m/z 7290.9; pH 6.

The test system is the same in assay [3]. Nature of the assay: 1H/13C HSQC with 24-13C compound. The conditions noted are these: 25 mM NaCl, 25 mM K3PO4; covalent; pH 6; 298 K; site tentatively NH2 of a base in nick.
Assay [4] has the same test system. Nature of the assay: DOSY NMR. The following applies: 25 mM NaCl, 25 mM K3PO4; D2O, pH 6, 25 °C; filtered mother liquor; equal diffusion coefficients; bound species may include bioconjugate, 4, SN38.

As to `CCc1c2c(nc3ccc(O)cc13)-c1cc3c(c(=O)n1C2)COC(=O)[C@]3(O)CC` [SN38], the IC50 in assay [1] (read-out: IC50) was 40.3 µM.

On to `CCc1c2c(nc3ccc(O)c(CNC)c13)-c1cc3c(c(=O)n1C2)COC(=O)[C@]3(O)CC` [compound 2, 7-ethyl-9-(N-methylamino)methyl-10-hydroxycamptothecin], for which the binding entry in assay [2] is “yes”. Further, the IC50 in assay [1] stood at 101 µM.

Take `CCc1c2c(nc3ccc(O)c(CN4CCOCC4)c13)-c1cc3c(c(=O)n1C2)COC(=O)[C@]3(O)CC` [compound 3, 7-ethyl-9-(N-morpholino)methyl-10-hydroxycamptothecin]: the binding result in assay [3] and in assay [4] was “yes” throughout. The compound further gave a half-maximal inhibitory concentration (IC50) in assay [1] of 48.7 µM.

These data come from publication PMC8303725 (International Journal of Molecular Sciences, 2021).
